Consider one sequence from patent US20200368336A1, “METHOD FOR PREPARING PERSONALIZED CANCER VACCINE” (SHANGHAI JENOMED BIOTECH CO., LTD., priority 2017, published 2020).

For the assay, the system named is mouse MHC molecule (MHC class I molecules). Put plainly: predicted affinity of short peptide chain to mouse MHC molecule (correlation analysis software). The conditions noted are these: mutant vs wild-type. The protocol: The tumor neoantigen of mice were analyzed by the following methods: mouse H-2 typing software was used to classify mouse H-2 molecules, and using software such as Sentieon TNscope, the DNA exome sequencing sequence of the peripheral blood mononuclear cells of cancer-bearing mice was used as a control to isolate tumor neoantigen from the sequencing sequence of CTC DNA exome of cancer-bearing mice, and the correlation analysis software was used to predict the affinity of the short peptide chain tumor neoantigen and its corresponding wild-type short peptide chain to the mouse MHC molecule.

As for “KAIRNVLII [preferred tumor neoantigen peptide screened from CTC of cancer-bearing mice]”, the “affinity of neoantigen higher than that of corresponding wild-type short peptide chain” value was “about 556 times”.
